Measurements taken from patent US20090124608A1, “CB2 Receptor Modulators In Neurodegenerative Diseases And Applications Of The Same” (priority 2006, published 2009).
“Also recorded” adds a separate entry of the source.

Tested on: CB1 and CB2 receptors
Assay: [35S]GTPγS binding with selective agonists in mouse spinal cord membranes
Format: biochemical
Details: data not shown
Method: [^35S]GTPγS binding assays were performed as described previously (Prather et al. 2000a) in a buffer containing 20 mM Hepes, 100 mM NaCl, and 10 mM MgCl2 at pH 7.4. Each binding reaction contained 10 μg of spinal cord membrane protein, the presence or absence of cannabinoid ligands (see following), plus 0.1 nM [^35S]GTPγS (1250 Ci/mmol, Perkin Elmer Life and Analytical Sciences) and […] of GDP to suppress basal G-protein activation. Reactions were incubated for 2 hrs at 30 °C. Non-specific binding was defined by binding observed in the presence of 10 μM of non-radioactive GTPγS. The reaction was terminated by rapid vacuum filtration through glass fiber filters followed by two washes with ice-cold assay buffer. 4 mL of scintiverse® (Fisher Scientific) was added to the filters and radioactivity quantified by scintillation counting.
We initially attempted to compare CB 1 and CB2 receptor activation of G-proteins between WT-OE and G93A spinal cord membranes by conducting [^35S]GTPγS binding assays in the presence of selective agonists.

COc1ccc2c(c1)c(CCN1CCOCC1)c(C)n2C(=O)c1cccc(Cl)c1Cl [GW-405833, (2,3-dichloro-phenyl)-[5-methoxy-2-methyl-3-(2-morpholin-4-yl-ethyl)-indol-1-yl]-methanone]
G-protein activation by selective agonist: failed attempts to demonstrate consistent, measurable G-protein activation; also recorded: unable to demonstrate consistent, measurable G-protein activation
